Results on 28 molecules are retold here after US8648066B2 (Exelixis, Inc., priority 2009, dated 2014).

Molecules are shown by their SMILES.

This experiment deals with mTOR/GbL/Raptor (mTORC1) (Homo sapiens, UniProt P42345). Description: mTOR/GbL/Raptor (mTORC1) ELISA assay. The experiment is classed as biochemical. Particulars: phosphorylation of 4E-BP1; 0.2 nM mTORC1, 10 μM ATP; read-out: IC50 in this assay (mTORC1 ELISA). Put shortly:
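Human mTORC1 (0.2 nM) phosphorylated 50 nM His-tagged 4E-BP1 with 10 µM ATP in HEPES pH 7.2 containing 10 mM MnCl2, 120 min at ambient temperature. Substrate was captured on Ni-chelate plates; phospho-4E-BP1 was detected by primary antibody and HRP secondary with luminescence.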
(An ELISA detects its analyte on a solid surface through an enzyme-linked reagent.)
For orientation: IC50 means the concentration needed to halve the response being measured. On to `CC1=C(C)C(C)(C)Cc2c1ncnc2N1CCOc2ccc(-c3cnc4nc(C)[nH]c4c3)cc2C1` [Example 552, 7-(2-methyl-1H-imidazo[4,5-b]pyridin-6-yl)-4-(6,6,7,8-tetramethyl-5,6-dihydroquinazolin-4-yl)-2,3,4,5-tetrahydro-1,4-benzoxazepine], for which the half-inhibitory concentration (IC50) is no more than 10 nM.
On to `CC1=Cc2ncnc(N3CCOc4ccc(-c5cnc6nc(C)[nH]c6c5)cc4C3)c2CC1(C)C` [Example 553], for which the IC50 is no more than 10 nM.
For `CC1=CC(C)(C)Cc2c1ncnc2N1CCOc2ccc(-c3cnc4nc(C)[nH]c4c3)cc2C1` [Example 554, 7-(2-methyl-1H-imidazo[4,5-b]pyridin-6-yl)-4-(6,6,8-trimethyl-5,6-dihydroquinazolin-4-yl)-2,3,4,5-tetrahydro-1,4-benzoxazepine] the value was no more than 10 nM.
Then `Cc1nc2ncc(-c3ccc4c(c3)CN(c3ncnc5c3CC(C)CC5)CCO4)cc2[nH]1` (stereo not shown) [Example 555, 7-(2-methyl-1H-imidazo[4,5-b]pyridin-6-yl)-4-(6-methyl-5,6,7,8-tetrahydroquinazolin-4-yl)-2,3,4,5-tetrahydro-1,4-benzoxazepine], with no more than 10 nM; and `Cc1nc2ncc(-c3ccc4c(c3)CN(c3ncnc5c3CCC(C)C5)CCO4)cc2[nH]1` (stereo not shown) [Example 556, 7-(2-methyl-1H-imidazo[4,5-b]pyridin-6-yl)-4-(7-methyl-5,6,7,8-tetrahydroquinazolin-4-yl)-2,3,4,5-tetrahydro-1,4-benzoxazepine], with 10 to 50 nM; and `Cc1nc2ncc(-c3ccc4c(c3)CN(c3ncnc5c3CCC(C)(c3ccccc3)C5)CCO4)cc2[nH]1` (stereo not shown) [Example 558, 7-(2-methyl-1H-imidazo[4,5-b]pyridin-6-yl)-4-(7-methyl-7-phenyl-5,6,7,8-tetrahydroquinazolin-4-yl)-2,3,4,5-tetrahydro-1,4-benzoxazepine], with no more than 10 nM.
Then `Cc1nc2ncc(-c3ccc4c(c3)CN(c3ncnc5c3CC[C@@H](C)C5)CCO4)cc2[nH]1` [Example 559, 7-(2-methyl-1H-imidazo[4,5-b]pyridin-6-yl)-4-[(7R)-7-methyl-5,6,7,8-tetrahydroquinazolin-4-yl]-2,3,4,5-tetrahydro-1,4-benzoxazepine], with 10 to 50 nM; and `Cc1nc2ncc(-c3ccc4c(c3)CN(c3ncnc5c3CC[C@H](C)C5)CCO4)cc2[nH]1` [Example 560, 7-(2-methyl-1H-imidazo[4,5-b]pyridin-6-yl)-4-[(7S)-7-methyl-5,6,7,8-tetrahydroquinazolin-4-yl]-2,3,4,5-tetrahydro-1,4-benzoxazepine], with 50 to 250 nM.
Regarding `Cc1nc2ncc(-c3ccc4c(c3)CN(c3ncnc(N5CCN(C)CC5)c3C)CCO4)cc2[nH]1` [Example 563, 7-(2-methyl-1H-imidazo[4,5-b]pyridin-6-yl)-4-[5-methyl-6-(4-methylpiperazin-1-yl)pyrimidin-4-yl]-2,3,4,5-tetrahydro-1,4-benzoxazepine], the IC50 lay in the range of 250 to 1000 nM.
Then `Cc1nc2ncc(-c3ccc4c(c3)CN(c3ncnc(C)c3C(C)C)CCO4)cc2[nH]1` [Example 564, 7-(2-methyl-1H-imidazo[4,5-b]pyridin-6-yl)-4-[6-methyl-5-(1-methylethyl)pyrimidin-4-yl]-2,3,4,5-tetrahydro-1,4-benzoxazepine], with no more than 10 nM; and `COc1ccc2c(N3CCOc4ccc(-c5cnc6nc(C)[nH]c6c5)cc4C3)ncnc2c1` [Example 565, 7-(2-methyl-1H-imidazo[4,5-b]pyridin-6-yl)-4-[7-(methyloxy)quinazolin-4-yl]-2,3,4,5-tetrahydro-1,4-benzoxazepine], with 50 to 250 nM; and `Cc1nc2ncc(-c3ccc4c(c3)CN(c3ncnc5c3CCC(C(F)(F)F)C5)CCO4)cc2[nH]1` (stereo not shown) [Example 566, 7-(2-methyl-1H-imidazo[4,5-b]pyridin-6-yl)-4-[7-(trifluoromethyl)-5,6,7,8-tetrahydroquinazolin-4-yl]-2,3,4,5-tetrahydro-1,4-benzoxazepine], with 10 to 50 nM.
With `COCC1CCc2c(ncnc2N2CCOc3ccc(-c4cnc5nc(C)[nH]c5c4)cc3C2)C1` (stereo not shown) [Example 567, 7-(2-methyl-1H-imidazo[4,5-b]pyridin-6-yl)-4-{7-[(methyloxy)methyl]-5,6,7,8-tetrahydrquinazolin-4-yl}-2,3,4,5-tetrahydro-1,4-benzoxazepine], the IC50 lay in the range of 50 to 250 nM.
For `COc1ccc2c(N3CCOc4ccc(-c5cnc6[nH]c(C)nc6c5)cc4C3)nc(C)nc2c1` [Example 568, 7-(2-methyl-1H-imidazo[4,5-b]pyridin-6-yl)-4-[2-methyl-7-(methyloxy)quinazolin-4-yl]-2,3,4,5-tetrahydro-1,4-benzoxazepine], the IC50 was in the range of 50 to 250 nM.
Turning to `COc1ccc2c(N3CCOc4ccc(-c5ccc(-c6c[nH]cn6)cc5)cc4C3)nc(C)nc2c1` [Example 570, 7-[4-(1H-imidazol-4-yl)phenyl]-4-[2-methyl-7-(methyloxy)quinazolin-4-yl]-2,3,4,5-tetrahydro-1,4-benzoxazepine], the IC50 fell in the range of 50 to 250 nM.
As for `CC1(C)CCc2ncnc(N3CCOc4ccc(-c5cnc6c(c5)S(=O)(=O)NC(=O)N6)cc4C3)c2C1` [Example 571, 7-[4-(6,6-dimethyl-5,6,7,8-tetrahydroquinazolin-4-yl)-2,3,4,5-tetrahydro-1,4-benzoxazepin-7-yl]-2H-pyrido[2,3-e][1,2,4]thiadiazin-3(4H)-one 1,1-dioxide], the IC50 fell in the range of 50 to 250 nM.
For `CC1(C)CCc2ncnc(N3CCOc4ccc(-c5cnc(Cl)c(OC(F)F)c5)cc4C3)c2C1` [Example 573, 7-{6-chloro-5-[(difluoromethyl)oxy]pyridin-3-yl}-4-(6,6-dimethyl-5,6,7,8-tetrahydroquinazolin-4-yl)-2,3,4,5-tetrahydro-1,4-benzoxazepine] the value was 250 to 1000 nM.
For `CC1(C)CCc2ncnc(N3CCOc4ccc(-c5cnc(Cl)c(CS(C)(=O)=O)c5)cc4C3)c2C1` [Example 574, 7-{6-chloro-5-[(methylsulfonyl)methyl]pyridin-3-yl}-4-(6,6-dimethyl-5,6,7,8-tetrahydroquinazolin-4-yl)-2,3,4,5-tetrahydro-1,4-benzoxazepine] the value was 1000 to 2000 nM.
As for `CC1(C)CCc2ncnc(N3CCOc4ccc(-c5cnc(N)c(S(=O)(=O)N6C7CCC6CC(N)C7)c5)cc4C3)c2C1` (stereo not shown) [Example 575, 8-({2-amino-5-[4-(6,6-dimethyl-5,6,7,8-tetrahydroquinazolin-4-yl)-2,3,4,5-tetrahydro-1,4-benzoxazepin-7-yl]pyridin-3-yl}sulfonyl)-8-azabicyclo[3.2.1]octan-3-amine], the IC50 was in the range of 10 to 50 nM.
For the molecule `CCOC(=O)Nc1nc2ncc(-c3ccc4c(c3)CN(c3ncnc5c3CC(C)(C)CC5)CCO4)cc2[nH]1` [Example 576, ethyl {6-[4-(6,6-dimethyl-5,6,7,8-tetrahydroquinazolin-4-yl)-2,3,4,5-tetrahydro-1,4-benzoxazepin-7-yl]-1H-imidazo[4,5-b]pyridin-2-yl}carbamate], the 50% inhibitory concentration (IC50) lay within 10 to 50 nM.
Turning to `CC[C@H]1CCc2c(nc(C)nc2N2CCOc3ccc(-c4cnc5nc(NC(=O)OC)[nH]c5c4)cc3C2)C1` [Example 577, methyl (6-{4-[(7S)-7-ethyl-2-methyl-5,6,7,8-tetrahydroquinazolin-4-yl]-2,3,4,5-tetrahydro-1,4-benzoxazepin-7-yl}-1H-imidazo[4,5-b]pyridin-2-yl)carbamate], the IC50 fell in the range of 10 to 50 nM.
With `CC[C@H]1CCc2c(ncnc2N2CCOc3ccc(-c4cnc5nc(NC(=O)OC)[nH]c5c4)cc3C2)C1` [Example 578, methyl (6-{4-[(7S)-7-ethyl-5,6,7,8-tetrahydroquinazolin-4-yl]-2,3,4,5-tetrahydro-1,4-benzoxazepin-7-yl}-1H-imidazo[4,5-b]pyridin-2-yl)carbamate], the IC50 lay in the range of 10 to 50 nM.
As for `COC(=O)Nc1nc2ccc(-c3ccc4c(c3)CN(c3nc(CN(C)C)nc5c3CC(C)(C)CC5)CCO4)cc2[nH]1` [Example 579, methyl [6-(4-{2-[(dimethylamino)methyl]-6,6-dimethyl-5,6,7,8-tetrahydroquinazolin-4-yl}-2,3,4,5-tetrahydro-1,4-benzoxazepin-7-yl)-1H-benzimidazol-2-yl]carbamate], the IC50 fell in the range of 250 to 1000 nM.
Then `COC(=O)Nc1nc2ncc(-c3ccc4c(c3)CN(c3nc(CN(C)C)nc5c3CC(C)(C)CC5)CCO4)cc2[nH]1` [Example 580], with 50 to 250 nM; and `COC(=O)Nc1nc2ncc(-c3ccc4c(c3)CN(c3ncnc5c3CC(C)(C)CC5)CCO4)cc2[nH]1` [Example 582, methyl {6-[4-(6,6-dimethyl-5,6,7,8-tetrahydroquinazolin-4-yl)-2,3,4,5-tetrahydro-1,4-benzoxazepin-7-yl]-1H-imidazo[4,5-b]pyridin-2-yl}carbamate], with no more than 10 nM; and `COC(=O)Nc1nc2ncc(-c3ccc4c(c3)CN(c3ncnc5c3CC(C)(C)C=C5)CCO4)cc2[nH]1` [Example 583, methyl {6-[4-(6,6-dimethyl-5,6-dihydroquinazolin-4-yl)-2,3,4,5-tetrahydro-1,4-benzoxazepin-7-yl]-1H-imidazo[4,5-b]pyridin-2-yl}carbamate], with no more than 10 nM.
As to `Cc1nc2ccc(-c3ccc4c(c3)CN(c3nc(CNC5CC5)nc(C)c3Cc3ccc(F)cc3)CCO4)cc2[nH]1` [Example 584, N-({5-[(4-fluorophenyl)methyl]-4-methyl-6-[7-(2-methyl-1H-benzimidazol-6-yl)-2,3-dihydro-1,4-benzoxazepin-4(5H)-yl]pyrimidin-2-yl}methyl)cyclopropanamine], the half-maximal inhibitory concentration (IC50) was no more than 10 nM.
`COCCNCc1nc2c(c(N3CCOc4ccc(-c5ccc6nc(C)[nH]c6c5)cc4C3)n1)CC(C)(C)CC2` [Example 585, N-({6,6-dimethyl-4-[7-(2-methyl-1H-benzimidazol-6-yl)-2,3-dihydro-1,4-benzoxazepin-4(5H)-yl]-5,6,7,8-tetrahydroquinazolin-2-yl}methyl)-2-(methyloxy)ethanamine]: the half-maximal inhibitory concentration (IC50) was 10 to 50 nM.
